# Experimental data taken from patent US4289781A, “Anti-psychotic phthalimidine derivatives” (priority 1979, dated 1981).
# Columns and labels:
# [1] = tested on: DA receptors in the brain; assay: Block of apomorphine induced stereotypies in rats (0-3 scale scoring); type: in vivo, Male Sprague-Dawley rats; conditions: i.p., 60 min prior to apomorphine hydrochloride 1 mg/kg s.c.; dose reducing strength of stereotypies by 50% over 60 min
# Source text: There are several techniques available to study DA receptor blockade in the brain. One method is based on the ability of anti-psychotics to block the behavioural effects induced by the DA agonist apomorphine. Apomorphine produces a characteristic syndrome in rats and other species consisting of repetitive movements (stereotypies) and hyperactivity which appear to be due to activation of postsynaptic DA receptors in the brain (J Pharm. Pharmacol. 19, 627, 1967; J Neurol. Transm. 40, 97-113, 1977). The stereotypies (chewing, licking, biting) appear mainly to reflect action on DA receptors of the neostriatal system ([…]. Res., 11, 1, 1974) whereas the increased locomotion (hyperactivity) mainly appears to be due to activation of DA receptors in mesolimbic structures (nucleus olfactorium, nucleus accumbens), (J Pharm. Pharmacol. 25, 1003, 1973). Male Sprague-Dawley rats weighing 225-275 g were used. […] The compounds were injected 60 min prior to apomorphine hydrochloride (1 mg/kg) which was injected subcutaneously into the neck. […] Furthermore, apomorphine given s.c. also produced a very consistent hyperactivity. Directly after injection, the animals were placed in the cages, one in each cage. Scoring of the stereotypies were performed by two separate methods. The first scoring system was a modified version of the system introduced by Costall and Naylor (1973). The strength of the stereotypy was scored on a 0-3 scale as follows: |______________________________________ |Score Description of stereotyped behaviour. |______________________________________ |0 No change in behaviour compared to saline controls | No sedation. |1 Discontinuous sniffing. |2 Continuous sniffing. |3 Continuous sniffing. Chewing, biting and licking. |______________________________________ In the second system the number of animals displaying hyperactivity caused by apomorphine were scored. Each group consisted of 6-8 animals. Saline controls were always run simultaneously. […] The ED50 's were calculated from log dose-response curves by the method of least squares from 4-6 dose levels with 6-8 animals per dose level.
# [2] = tested on: DA receptors in the brain; assay: Block of apomorphine induced hyperactivity in rats (number of animals displaying hyperactivity); type: in vivo, Male Sprague-Dawley rats; conditions: i.p., 60 min prior to apomorphine hydrochloride 1 mg/kg s.c.; dose reducing number of animals showing hyperactivity by 50% over 60 min
# Source text: There are several techniques available to study DA receptor blockade in the brain. One method is based on the ability of anti-psychotics to block the behavioural effects induced by the DA agonist apomorphine. Apomorphine produces a characteristic syndrome in rats and other species consisting of repetitive movements (stereotypies) and hyperactivity which appear to be due to activation of postsynaptic DA receptors in the brain (J Pharm. Pharmacol. 19, 627, 1967; J Neurol. Transm. 40, 97-113, 1977). The stereotypies (chewing, licking, biting) appear mainly to reflect action on DA receptors of the neostriatal system (J Phychiat. Res., 11, 1, 1974) whereas the increased locomotion (hyperactivity) mainly appears to be due to activation of DA receptors in mesolimbic structures (nucleus olfactorium, nucleus accumbens), (J Pharm. Pharmacol. 25, 1003, 1973).
# Male Sprague-Dawley rats weighing 225-275 g were used. […] The compounds were injected 60 min prior to apomorphine hydrochloride (1 mg/kg) which was injected subcutaneously into the neck.
# Directly after injection, the animals were placed in the cages, one in each cage. Scoring of the stereotypies were performed by two separate methods. The first scoring system was a modified version of the system introduced by Costall and Naylor (1973). The strength of the stereotypy was scored on a 0-3 scale as follows:
# In the second system the number of animals displaying hyperactivity caused by apomorphine were scored. Each group consisted of 6-8 animals. Saline controls were always run simultaneously. ED50 's are in the first scoring system (0-3 scale), the doses which reduce the strength of the stereotypies by 50% over the observation period of 60 min. ED50 's of the second scoring system are the doses which reduce the number of animals showing hyperactivity by 50% over the observation period of 60 min. The ED50 's were calculated from log dose-response curves by the method of least squares from 4-6 dose levels with 6-8 animals per dose level.
# [3] = experimental animals; cited from earlier work
# [4] = in vivo; cited from earlier work
Compound,Stereotypies ED50 [1] [µmol/kg],Hyperactivity ED50 [2] [µmol/kg],catalepsy [3],extrapyramidal side effects [4]
"O=C1c2ccc(F)cc2CN1C1CCN(Cc2ccccc2)CC1 [Example 1, 2-(4-N-benzylpiperidyl)-5-fluorophthalimidine]",22.0,4.0,,
"O=C1c2ccc(Br)cc2CN1C1CCN(Cc2ccccc2)CC1 [Example 2, 2-(4-N-benzylpiperidyl)-5-bromo phthalimidine]",17.5,14,,
"O=C1c2ccc(Cl)cc2CN1C1CCN(Cc2ccccc2)CC1 [Example 3, 2-(4-N-benzylpiperidyl)-5-chloro phthalimidine]",16.0,2.0,,
"COc1ccc(CN2CCC(N3Cc4cc(Cl)ccc4C3=O)CC2)cc1 [Example 7, 5-chloro-2-[4-N-(4-methoxybenzyl)piperidyl]-phthalimidine]",9.5,2.2,,
"O=C1c2ccc(Br)cc2CN1C1CCN(Cc2ccc(Cl)cc2)CC1 [Example 11, 5-bromo-2-[4-N-(4-chlorobenzyl)-piperidyl]-phthalimidine]",11,3.4,,
Cc1ccc(CN2CCC(N3Cc4cc(Br)ccc4C3=O)CC2)cc1 [Example 14],6.5,1.7,,
"O=C1c2ccc(Cl)cc2CN1C1CCN(Cc2ccc(Cl)cc2)CC1 [Example 15, 5-chloro-2-[4-N-(4-chlorobenzyl)piperidyl)-phthalimidine]",14,3.5,,
"Cc1ccc(CN2CCC(N3Cc4cc(Cl)ccc4C3=O)CC2)cc1 [Example 16, 5-chloro-2-[4-N-(4-methylbenzyl)piperidyl]-phthalimidine]",9,0.9,,
CCN1CCCC1CNC(=O)c1cc(S(N)(=O)=O)ccc1OC (stereo not shown) [Sulpiride],,45,weak catalepsy,weak extrapyramidal side effects
